Measurements: patent US20150165029A1, “THERAPEUTIC COMPOSITIONS” (CUBIST PHARMACEUTICALS, INC., priority 2005, published 2015)
Read-outs that look alike come from different tables or passages of the source.

How the values were obtained:
[1] = Rat intraduodenal capsule model, % bioavailability; conditions: for Drug plus enhancer % BA: 4:1 (enhancer:drug), ceftriaxone/carrageenan complex+Laureth-12, daptomycin carrageenan complex+Ceteth-15, CMPD 1+Ceteth-15, cidofovir, meropenem, caspofungin+Ceteth-12; for bioavailability: male, Sprague Dawley, rat, plasma
Protocol: (§1) Male Sprague Dawley rats weighing approximately 250 g with free access to water were fasted overnight. These rats were anesthetized with 40 mg/kg pentobarbital via jugular vein catheter. The small intestine was exposed by a ventral midline incision. A small incision was made into the duodenum and a #9el capsule was inserted into the lumen of the small intestine. The duodenum and the midline incisions were sutured closed. The rats regained consciousness in 30-90 minutes. Blood samples were taken from the jugular vein catheter at 0, 15, 30 and 60 minutes and 2, 3, 4 and 6 hours. Food was returned at 1 hour post surgery. Blood samples were collected in heparinized tubes and subsequently centrifuged. The plasma was stored at −20 C in heparinized tubes. The rats regained consciousness in 30-90 minutes. After the 6 hr blood sample, the rat was euthanized and a necropsy was performed to determine accuracy and integrity of the surgery. The duodenum was examined for blockage, leakage and any evidence of inflammation or irritation at the site of the capsule implantation.

[2] = Rat intraduodenal capsule model, Cmax with different enhancers (Example 6); conditions: ID in rats, Cmax normalized to 40 mg/Kg
Protocol: Male Sprague Dawley rats weighing approximately 250 g with free access to water were fasted overnight. These rats were anesthetized with 40 mg/kg pentobarbital via jugular vein catheter. The small intestine was exposed by a ventral midline incision. A small incision was made into the duodenum and a #9el capsule was inserted into the lumen of the small intestine. The duodenum and the midline incisions were sutured closed. The rats regained consciousness in 30-90 minutes. Blood samples were taken from the jugular vein catheter at 0, 15, 30 and 60 minutes and 2, 3, 4 and 6 hours. Food was returned at 1 hour post surgery. Blood samples were collected in heparinized tubes and subsequently centrifuged. The plasma was stored at −20 C in heparinized tubes. […] After the 6 hr blood sample, the rat was euthanized and a necropsy was performed to determine accuracy and integrity of the surgery. The duodenum was examined for blockage, leakage and any evidence of inflammation or irritation at the site of the capsule implantation.
In each instance, the compositions were administered ID in 3 rats, unless otherwise indicated.

[3] = without any absorption enhancer; cited from earlier work
[4] = rat, in vivo
Protocol: as §1

[5] = rat, in vivo; cited from earlier work

Row | Molecule | Drug plus enhancer % BA ([1]; ID, rats) | bioavailability [1] [%] | % bioavailability [4] | further results
1 | CN(/N=C/C1=C(C(=O)O)N2C(=O)C(NC(=O)/C(=N\OCF)c3nsc(N)n3)[C@H]2SC1)C(=N)N1CCNCC1 (stereo partly shown) [CMPD 1, 7-(((5-amino-1,2,4-thiadiazol-3-yl)-(Z)-(fluoromethoxyimino)acetyl)amino)-3(E)-((imino-1-piperazinylmethyl)-methylhydrazono)methyl-3-cephem-4-carboxylic acid] | 30% |  |  | Cmax Mean (±SD) ([2]; enhancer Capmul C10, enhancer:drug 4:1): 7 (7) μg/mL; Cmax Mean (±SD) ([2]; enhancer Gelmul 90, enhancer:drug 4:1): 13 (8) μg/mL; Cmax Mean (±SD) ([2]; enhancer Laureth-12, enhancer:drug 4:1): 22 (4) μg/mL; Cmax Mean (±SD) ([2]; enhancer Sodium Laurate, enhancer:drug 4:1): 7 (1) μg/mL
2 | CC[C@H](C)C[C@H](C)CCCCCCCCC(=O)N[C@H]1C[C@@H](O)[C@@H](NCCN)NC(=O)[C@@H]2[C@@H](O)CCN2C(=O)[C@H]([C@H](O)CCN)NC(=O)[C@H]([C@H](O)[C@@H](O)c2ccc(O)cc2)NC(=O)[C@@H]2C[C@@H](O)CN2C(=O)[C@H]([C@@H](C)O)NC1=O [Caspofungin, caspofungin] | <5% | < 1 |  | 
3 | CO/N=C(\C(=O)N[C@@H]1C(=O)N2C(C(=O)O)=C(CSc3nc(=O)c(=O)[nH]n3C)CS[C@H]12)c1csc(N)n1 [Ceftriaxone, ceftriaxone] | 83^2% |  |  | Drug only % BA ([1]; without POE alkyl ether enhancer, ID, rats): 2%; oral bioavailability [3]: 0-5%
4 | Nc1ccn(C[C@@H](CO)OCP(=O)(O)O)c(=O)n1 [Cidofovir, cidofovir] | 44% | 2 |  | 
5 | CCCCCCCCCC(=O)N[C@@H](Cc1c[nH]c2ccccc12)C(=O)N[C@H](CC(N)=O)C(=O)N[C@@H](CC(=O)O)C(=O)N[C@@H]1C(=O)NCC(=O)N[C@@H](CCCN)C(=O)N[C@@H](CC(=O)O)C(=O)N[C@H](C)C(=O)N[C@@H](CC(=O)O)C(=O)NCC(=O)N[C@H](CO)C(=O)N[C@@H]([C@H](C)CC(=O)O)C(=O)N[C@@H](CC(=O)c2ccccc2N)C(=O)O[C@@H]1C [Daptomycin, daptomycin, reference compound] |  |  |  | Drug plus enhancer % BA [4]: 44^2%; oral bioavailability of drug only (footnote) [5]: poor oral bioavailability
6 | C[C@@H](O)[C@H]1C(=O)N2C(C(=O)O)=C(S[C@@H]3CN[C@H](C(=O)N(C)C)C3)[C@H](C)[C@H]12 [Meropenem, meropenem] | 28% | 1 |  | 
7 | Beheneth-20 |  |  | 7 (5) % | 
8 | Laureth-9 |  |  | 60 (19) % | 
9 | Laureth-23 |  |  | 10 (4) % | 
